Laboratory results published in PubChem BioAssay AID248 (DTP/NCI, 2004).
Several values for one entry are separate records, joined by “and”; a condition that tells them apart may be missing. Identical values can stand only once. Inconclusive results and toxic doses are left out. No stated cut-off is given here; in the data, active means T/C of 150% or more; inactive means T/C below 125%.

Tested on: L1210 leukemia ip in BDF1 mice, survival T/C
Assay: NCI In Vivo Anticancer Drug Screen. Data for tumor model L1210 Leukemia (intraperitoneal) in B6D2F1 (BDF1) mice
Conditions: endpoint: mean survival time, higher = longer survival
Procedure, shortened: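 Survival endpoint. Drug-treated group vs vehicle group, expressed as T divided by C. Tumor passaged by transplantation.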

[1] = dose: 100.0 mg/kg/injection, schedule: Q01DX009 (ip), vehicle: saline with Tween-80
[2] = dose: 100.0 mg/kg/injection, schedule: Q04DX003 (ip), vehicle: saline with Tween-80
[3] = dose: 200.0 mg/kg/injection, schedule: Q01DX009 (ip), vehicle: saline with Tween-80
[4] = dose: 200.0 mg/kg/injection, schedule: Q04DX003 (ip), vehicle: saline with Tween-80
[5] = dose: 400.0 mg/kg/injection, schedule: Q01DX009 (ip), vehicle: saline with Tween-80
[6] = dose: 400.0 mg/kg/injection, schedule: Q04DX003 (ip), vehicle: saline with Tween-80
[7] = dose: 50.0 mg/kg/injection, schedule: Q01DX009 (ip), vehicle: Klucel (hydroxypropylcellulose) (HPC)
[8] = dose: 100.0 mg/kg/injection, schedule: Q01DX009 (ip), vehicle: Klucel (hydroxypropylcellulose) (HPC)
[9] = dose: 100.0 mg/kg/injection, schedule: Q04DX003 (ip), vehicle: Klucel (hydroxypropylcellulose) (HPC)
[10] = dose: 200.0 mg/kg/injection, schedule: Q04DX003 (ip), vehicle: Klucel (hydroxypropylcellulose) (HPC)
[11] = dose: 100.0 mg/kg/injection, schedule: Q01DX009 (ip), vehicle: saline
[12] = dose: 100.0 mg/kg/injection, schedule: Q01DX001 (ip), vehicle: saline
[13] = dose: 200.0 mg/kg/injection, schedule: Q01DX001 (ip), vehicle: saline
[14] = dose: 400.0 mg/kg/injection, schedule: Q01DX001 (ip), vehicle: saline
[15] = dose: 100.0 mg/kg/injection, schedule: Q01DX001 (ip), vehicle: Klucel (hydroxypropylcellulose) (HPC)
[16] = dose: 200.0 mg/kg/injection, schedule: Q01DX001 (ip), vehicle: Klucel (hydroxypropylcellulose) (HPC)
[17] = dose: 100.0 mg/kg/injection, schedule: Q04DX002 (ip), vehicle: Klucel (hydroxypropylcellulose) (HPC)
[18] = dose: 100.0 mg/kg/injection, schedule: Q04DX003 (ip), vehicle: saline
[19] = dose: 200.0 mg/kg/injection, schedule: Q04DX003 (ip), vehicle: saline
[20] = dose: 400.0 mg/kg/injection, schedule: Q04DX003 (ip), vehicle: saline
[21] = dose: 50.0 mg/kg/injection, schedule: Q01DX009 (ip), vehicle: saline with Tween-80
[22] = dose: 100.0 mg/kg/injection, schedule: Q04DX002 (ip), vehicle: saline
[23] = dose: 200.0 mg/kg/injection, schedule: Q04DX002 (ip), vehicle: saline

Measured: T/C

CC(O)(Cc1ccccc1)c1ccccc1 (stereo not given)
inactive: dose: 44.0 mg/kg/injection, schedule: Q04DX003 (ip), vehicle: saline with Tween-80 94 % of control | dose: 66.0 mg/kg/injection, schedule: Q04DX003 (ip), vehicle: saline with Tween-80 94 % of control | [1] 102 % of control | [2] 94 % of control | dose: 150.0 mg/kg/injection, schedule: Q04DX003 (ip), vehicle: saline with Tween-80 96 % of control | [3] 98 % of control | [4] 107 % of control | [5] 102 % of control | [6] 104 % of control

CCc1ccccc1NC(=O)c1cccc(C(=O)Nc2ccccc2CC)c1
inactive: [7] 98 % of control | [8] 94 % of control | [9] 91 % of control | dose: 200.0 mg/kg/injection, schedule: Q01DX009 (ip), vehicle: Klucel (hydroxypropylcellulose) (HPC) 110 % of control | [10] 88 % of control

BrCC[CH2][Sn]([Br])([Br])[Br]
inactive: dose: 50.0 mg/kg/injection, schedule: Q01DX009 (ip), vehicle: saline 107 % of control | [11] 103 % of control

O=C(O)CSC(CC(=O)O)C(=O)O (stereo not given)
inactive: [11] 107 % of control | dose: 200.0 mg/kg/injection, schedule: Q01DX009 (ip), vehicle: saline 108 % of control | dose: 400.0 mg/kg/injection, schedule: Q01DX009 (ip), vehicle: saline 103 % of control

CC(=O)OCC1OC(Sc2nc3ncnc(N)c3[nH]2)C(OC(C)=O)C(OC(C)=O)C1OC(C)=O (stereo not given)
inactive: [12] 104 % of control | [13] 102 % of control | [14] 97 % of control

C=C(C)COc1c(C)c(C)c(OS(=O)(=O)c2ccc(Br)cc2)c(C)c1C
inactive: [15] 97 % of control | [16] 89 % of control | dose: 400.0 mg/kg/injection, schedule: Q01DX001 (ip), vehicle: Klucel (hydroxypropylcellulose) (HPC) 100 % of control

O=C1OC(c2ccc([N+](=O)[O-])cc2)=N/C1=C\c1ccc(Cl)c(Cl)c1
inactive: [17] 108 % of control | dose: 200.0 mg/kg/injection, schedule: Q04DX002 (ip), vehicle: Klucel (hydroxypropylcellulose) (HPC) 97 % of control | dose: 400.0 mg/kg/injection, schedule: Q04DX002 (ip), vehicle: Klucel (hydroxypropylcellulose) (HPC) 101 % of control

O=C1NC(c2ccccc2)(c2ccccc2)C(=O)N1CCCl
inactive: dose: 100.0 mg/kg/injection, schedule: Q01DX009 (ip), vehicle: acetone 102 % of control | [18] 101 % of control | dose: 200.0 mg/kg/injection, schedule: Q01DX009 (ip), vehicle: acetone 101 % of control | [19] 95 % of control | dose: 400.0 mg/kg/injection, schedule: Q01DX009 (ip), vehicle: acetone 104 % of control | [20] 110 % of control

C[n+]1cccc2ccccc21
inactive: dose: 12.5 mg/kg/injection, schedule: Q04DX003 (ip), vehicle: saline 96 % of control | dose: 25.0 mg/kg/injection, schedule: Q04DX003 (ip), vehicle: saline 93 % of control and 91 % of control | dose: 50.0 mg/kg/injection, schedule: Q04DX003 (ip), vehicle: saline 93 % of control and 95 % of control | [18] 93 % of control and 105 % of control

CCOC(=O)c1cc(Br)c(O)c(Br)c1
inactive: [7] 95 % of control | [8] 91 % of control

C=CCOCC(O)CN(CCCC)CCCC (stereo not given)
inactive: dose: 25.0 mg/kg/injection, schedule: Q01DX009 (ip), vehicle: saline with Tween-80 95 % of control | [21] 97 % of control

CN1CCN(c2ccc([N+](=O)[O-])c3no[n+]([O-])c23)CC1
inactive: dose: 0.2 mg/kg/injection, schedule: Q03HX024 (ip), vehicle: saline with Tween-80 104 % of control | dose: 0.39 mg/kg/injection, schedule: Q03HX024 (ip), vehicle: saline with Tween-80 100 % of control | dose: 0.78 mg/kg/injection, schedule: Q03HX024 (ip), vehicle: saline with Tween-80 111 % of control | dose: 1.56 mg/kg/injection, schedule: Q03HX024 (ip), vehicle: saline with Tween-80 105 % of control | dose: 3.13 mg/kg/injection, schedule: Q03HX024 (ip), vehicle: saline with Tween-80 109 % of control | dose: 7.5 mg/kg/injection, schedule: Q01DX009 (ip), vehicle: saline 108 % of control and 115 % of control | dose: 10.0 mg/kg/injection, schedule: Q01DX009 (ip), vehicle: saline 118 % of control | dose: 15.0 mg/kg/injection, schedule: Q01DX009 (ip), vehicle: saline 115 % of control and 124 % of control | dose: 25.0 mg/kg/injection, schedule: Q01DX009 (ip), vehicle: saline 117 % of control | dose: 25.0 mg/kg/injection, schedule: Q04DX002 (ip), vehicle: Klucel (hydroxypropylcellulose) (HPC) 104 % of control | dose: 50.0 mg/kg/injection, schedule: Q04DX002 (ip), vehicle: Klucel (hydroxypropylcellulose) (HPC) 104 % of control | [17] 113 % of control

NCCCN1CCCN=C1C1=NCCCN1CCCN
inactive: [1] 96 % of control | [22] 100 % of control | [2] 109 % of control | [3] 100 % of control | [23] 100 % of control | [4] 98 % of control | [5] 100 % of control | [6] 95 % of control

CCC#CC(=O)OCCCCCC
inactive: [22] 107 % of control | [23] 100 % of control | dose: 400.0 mg/kg/injection, schedule: Q04DX002 (ip), vehicle: saline 103 % of control

O=C(O)c1cccc(NC(C(=O)c2ccccc2)c2ccccc2)c1 (stereo not given)
inactive: dose: 50.0 mg/kg/injection, schedule: Q01DX001 (ip), vehicle: Klucel (hydroxypropylcellulose) (HPC) 102 % of control | [15] 102 % of control | [16] 102 % of control

Cc1nc(N2CCCCC2)[nH]c(=O)c1CN(C)N=O
inactive: [21] 94 % of control | [1] 94 % of control | [3] 102 % of control

CN1C(=O)OC2(CCN(Cc3ccc([N+](=O)[O-])o3)CC2)C1=O
inactive: [9] 98 % of control | [10] 96 % of control | dose: 400.0 mg/kg/injection, schedule: Q04DX003 (ip), vehicle: Klucel (hydroxypropylcellulose) (HPC) 98 % of control

O=S1(=O)CCOCC1
inactive: dose: 100.0 mg/kg/injection, schedule: Q01DX009 (ip), vehicle: saline sonified 105 % of control | [18] 97 % of control | dose: 200.0 mg/kg/injection, schedule: Q01DX009 (ip), vehicle: saline sonified 97 % of control | [19] 95 % of control | dose: 400.0 mg/kg/injection, schedule: Q01DX009 (ip), vehicle: saline sonified 102 % of control | [20] 105 % of control

O=C(Nn1cn[nH]c1=S)Oc1ccccc1
inactive: [2] 103 % of control | [4] 103 % of control

O=S(=O)(Cc1ccccc1)C(Cl)Cl
inactive: dose: 75.0 mg/kg/injection, schedule: Q01DX001 (ip), vehicle: saline 96 % of control | dose: 150.0 mg/kg/injection, schedule: Q01DX001 (ip), vehicle: saline 94 % of control | dose: 300.0 mg/kg/injection, schedule: Q01DX001 (ip), vehicle: saline 96 % of control

CCNC(=S)NCCO
inactive: dose: 100.0 mg/kg/injection, schedule: Q04DX003 (ip), vehicle: saline sonified 97 % of control | dose: 200.0 mg/kg/injection, schedule: Q04DX003 (ip), vehicle: saline sonified 90 % of control | dose: 400.0 mg/kg/injection, schedule: Q04DX003 (ip), vehicle: saline sonified 97 % of control

CC(NC(=O)OCc1ccccc1)C(=O)NC1C(CO)OC(n2cnc3c(N)ncnc32)C1O (stereo not given)
inactive: [12] 94 % of control | [13] 103 % of control | [14] 100 % of control

CCCCCCCCC[n+]1ccc(C(N)=O)cc1
inactive: [2] 98 % of control

O=C(O)c1ccc(Br)o1
inactive: dose: 100.0 mg/kg/injection, schedule: Q04DX002 (ip), vehicle: saline with Tween-80 104 % of control | dose: 200.0 mg/kg/injection, schedule: Q04DX002 (ip), vehicle: saline with Tween-80 97 % of control | dose: 400.0 mg/kg/injection, schedule: Q04DX002 (ip), vehicle: saline with Tween-80 95 % of control
